# Values joined by “and” are separate entries in the source; they are usually repeats but may differ in a detail not shown here. Identical values can stand only once.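 Dose response: 5 concentrations. Exposure: 48 h. Format: 96-well plates. Endpoint: linear interpolation; highest concentration if not reached. The concentration for 50% growth inhibition is given as GI50. TGI: concentration producing complete growth inhibition.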
# Experiments:
# Assay in all cases: growth of human tumour cells (NCI), 48 h
# UACC-62 melanoma = tested on: UACC-62 melanoma
# MALME-3M melanoma = tested on: MALME-3M melanoma
# OVCAR-5 ovarian = tested on: OVCAR-5 ovarian
# SW-620 colon = tested on: SW-620 colon
# MOLT-4 leukemia = tested on: MOLT-4 leukemia
# ACHN renal = tested on: ACHN renal
# NCI-H522 lung = tested on: NCI-H522 lung
# NCI-H23 lung = tested on: NCI-H23 lung
# MDA-MB-435 = tested on: MDA-MB-435
# SK-MEL-5 melanoma = tested on: SK-MEL-5 melanoma
# HOP-92 NSCLC = tested on: HOP-92 NSCLC
# SF-295 CNS = tested on: SF-295 CNS
# A498 renal = tested on: A498 renal
# COLO 205 colon = tested on: COLO 205 colon
# K-562 leukemia = tested on: K-562 leukemia
# HS 578T breast = tested on: HS 578T breast
# IGROV1 ovarian = tested on: IGROV1 ovarian
# KM12 colon = tested on: KM12 colon
# UO-31 renal = tested on: UO-31 renal
# NCI/ADR-RES ovarian = tested on: NCI/ADR-RES ovarian
# SF-268 CNS = tested on: SF-268 CNS
# MDA-MB-231 breast = tested on: MDA-MB-231 breast
# SK-MEL-2 melanoma = tested on: SK-MEL-2 melanoma
# MCF7 breast = tested on: MCF7 breast
# SK-MEL-28 melanoma = tested on: SK-MEL-28 melanoma
# OVCAR-4 ovarian = tested on: OVCAR-4 ovarian
# OVCAR-3 ovarian = tested on: OVCAR-3 ovarian
# SK-OV-3 ovarian = tested on: SK-OV-3 ovarian
# SN12C renal = tested on: SN12C renal
# LOX IMVI melanoma = tested on: LOX IMVI melanoma
# 786-0 renal = tested on: 786-0 renal
# CAKI-1 renal = tested on: CAKI-1 renal
# RXF 393 renal = tested on: RXF 393 renal
# DU-145 prostate = tested on: DU-145 prostate
# PC-3 prostate = tested on: PC-3 prostate
# T-47D breast = tested on: T-47D breast
# UACC-257 melanoma = tested on: UACC-257 melanoma
# M14 melanoma = tested on: M14 melanoma
# HCT-116 colon = tested on: HCT-116 colon
# SF-539 CNS = tested on: SF-539 CNS
# NCI-H226 lung = tested on: NCI-H226 lung
# HOP-62 NSCLC = tested on: HOP-62 NSCLC
# TK-10 renal = tested on: TK-10 renal
# U251 CNS = tested on: U251 CNS
# HCT-15 colon = tested on: HCT-15 colon
# EKVX NSCLC = tested on: EKVX NSCLC
# BT-549 breast = tested on: BT-549 breast
# SNB-75 CNS = tested on: SNB-75 CNS
# OVCAR-8 ovarian = tested on: OVCAR-8 ovarian
# HL-60(TB) leukemia = tested on: HL-60(TB) leukemia
# CCRF-CEM leukemia = tested on: CCRF-CEM leukemia
# A549 NSCLC = tested on: A549 NSCLC
# HCC-2998 colon = tested on: HCC-2998 colon
# RPMI-8226 leukemia = tested on: RPMI-8226 leukemia
# SNB-19 CNS = tested on: SNB-19 CNS
# HT29 colon = tested on: HT29 colon
# NCI-H460 lung = tested on: NCI-H460 lung
structure (smiles),measurement,setting,value
C1=C/COCc2cc(ccc2OCCN2CCCC2)Nc2nccc(n2)-c2cccc(c2)COC/1,GI50,UACC-62 melanoma,0.641 µM and 1.3 µM
same,TGI,UACC-62 melanoma,2.12 µM and 2.73 µM
same,GI50,MALME-3M melanoma,0.68 µM and 1.21 µM
same,TGI,MALME-3M melanoma,2.19 µM and 2.89 µM
same,GI50,OVCAR-5 ovarian,0.356 µM and 0.717 µM
same,TGI,OVCAR-5 ovarian,2.36 µM and 2.78 µM
same,GI50,SW-620 colon,0.489 µM and 0.927 µM
same,TGI,SW-620 colon,2.59 µM and 3.69 µM
same,GI50,MOLT-4 leukemia,0.369 µM and 0.689 µM
same,TGI,MOLT-4 leukemia,2.54 µM and 4.09 µM
same,GI50,ACHN renal,0.394 µM and 0.486 µM
same,TGI,ACHN renal,2.76 µM and 3.68 µM
same,GI50,NCI-H522 lung,1.75 µM and 1.44 µM
same,TGI,NCI-H522 lung,3.75 µM and 3.4 µM
same,GI50,NCI-H23 lung,0.628 µM and 1.14 µM
same,TGI,NCI-H23 lung,2.36 µM and 3.21 µM
same,GI50,MDA-MB-435,0.582 µM
same,TGI,MDA-MB-435,1.99 µM and 2.03 µM
same,GI50,SK-MEL-5 melanoma,0.672 µM
same,TGI,SK-MEL-5 melanoma,1.82 µM
same,GI50,HOP-92 NSCLC,1.2 µM and 0.624 µM
same,TGI,HOP-92 NSCLC,6.38 µM and 3.15 µM
same,GI50,SF-295 CNS,1.58 µM and 1.98 µM
same,TGI,SF-295 CNS,3.34 µM and 4.29 µM
same,GI50,A498 renal,1.25 µM and 1.31 µM
same,TGI,A498 renal,2.7 µM and 3.98 µM
same,GI50,COLO 205 colon,0.443 µM and 0.643 µM
same,TGI,COLO 205 colon,1.84 µM and 1.85 µM
same,GI50,K-562 leukemia,0.639 µM and 1.18 µM
same,TGI,K-562 leukemia,4.05 µM and 4.51 µM
same,GI50,HS 578T breast,1.29 µM and 1.68 µM
same,TGI,HS 578T breast,4.47 µM and 5.56 µM
same,GI50,IGROV1 ovarian,0.498 µM and 0.552 µM
same,TGI,IGROV1 ovarian,3.02 µM and 3.55 µM
same,GI50,KM12 colon,0.149 µM and 0.224 µM
same,TGI,KM12 colon,1.4 µM and 1.57 µM
same,GI50,UO-31 renal,0.366 µM and 0.758 µM
same,TGI,UO-31 renal,2.02 µM and 3.2 µM
same,GI50,NCI/ADR-RES ovarian,1.09 µM and 1.76 µM
same,TGI,NCI/ADR-RES ovarian,4.33 µM and 6.24 µM
same,GI50,SF-268 CNS,0.648 µM and 1.05 µM
same,TGI,SF-268 CNS,2.56 µM and 2.82 µM
same,GI50,MDA-MB-231 breast,1.17 µM and 0.798 µM
same,TGI,MDA-MB-231 breast,3.13 µM and 2.92 µM
same,GI50,SK-MEL-2 melanoma,1.55 µM and 1.43 µM
same,TGI,SK-MEL-2 melanoma,3.57 µM and 3.22 µM
same,GI50,MCF7 breast,0.353 µM
same,TGI,MCF7 breast,1.54 µM
same,GI50,SK-MEL-28 melanoma,1.29 µM and 1.15 µM
same,TGI,SK-MEL-28 melanoma,2.86 µM and 2.43 µM
same,GI50,OVCAR-4 ovarian,1.55 µM and 1.37 µM
same,TGI,OVCAR-4 ovarian,4.51 µM and 3.21 µM
same,GI50,OVCAR-3 ovarian,0.849 µM and 1.31 µM
same,TGI,OVCAR-3 ovarian,2.85 µM and 2.89 µM
same,GI50,SK-OV-3 ovarian,1.45 µM and 1.19 µM
same,TGI,SK-OV-3 ovarian,3.28 µM and 2.58 µM
same,GI50,SN12C renal,0.587 µM and 0.586 µM
same,TGI,SN12C renal,2.62 µM and 2.94 µM
same,GI50,LOX IMVI melanoma,0.37 µM and 0.58 µM
same,TGI,LOX IMVI melanoma,1.58 µM and 2.17 µM
same,GI50,786-0 renal,1.28 µM and 1.4 µM
same,TGI,786-0 renal,3.14 µM and 2.88 µM
same,GI50,CAKI-1 renal,0.443 µM and 0.463 µM
same,TGI,CAKI-1 renal,2.04 µM and 2.25 µM
same,GI50,RXF 393 renal,0.278 µM and 0.339 µM
same,TGI,RXF 393 renal,0.784 µM and 1.12 µM
same,GI50,DU-145 prostate,0.433 µM and 0.749 µM
same,TGI,DU-145 prostate,11.2 µM and 3.66 µM
same,GI50,PC-3 prostate,0.62 µM and 1.01 µM
same,TGI,PC-3 prostate,3.17 µM and 3.93 µM
same,GI50,T-47D breast,0.509 µM and 0.949 µM
same,TGI,T-47D breast,3.03 µM and 3.78 µM
same,GI50,UACC-257 melanoma,1.65 µM and 1.48 µM
same,TGI,UACC-257 melanoma,3.25 µM and 2.99 µM
same,GI50,M14 melanoma,0.669 µM and 0.997 µM
same,TGI,M14 melanoma,2.46 µM and 2.43 µM
same,GI50,HCT-116 colon,0.457 µM and 0.498 µM
same,TGI,HCT-116 colon,2.39 µM and 1.78 µM
same,GI50,SF-539 CNS,1.47 µM and 1.8 µM
same,TGI,SF-539 CNS,3 µM and 3.32 µM
same,GI50,NCI-H226 lung,0.376 µM and 1.28 µM
same,TGI,NCI-H226 lung,1.82 µM and 2.73 µM
same,GI50,HOP-62 NSCLC,1.11 µM and 1.36 µM
same,TGI,HOP-62 NSCLC,4.39 µM and 3.23 µM
same,GI50,TK-10 renal,1.58 µM and 1.09 µM
same,TGI,TK-10 renal,3.67 µM and 3.84 µM
same,GI50,U251 CNS,1.12 µM and 1.27 µM
same,TGI,U251 CNS,2.63 µM and 3.14 µM
same,GI50,HCT-15 colon,0.35 µM and 0.558 µM
same,TGI,HCT-15 colon,2.3 µM and 6.84 µM
same,GI50,EKVX NSCLC,1.72 µM and 1.76 µM
same,TGI,EKVX NSCLC,8.83 µM and 5.74 µM
same,GI50,BT-549 breast,2.15 µM and 2.3 µM
same,TGI,BT-549 breast,5.02 µM and 4.87 µM
same,GI50,SNB-75 CNS,1.08 µM and 1.14 µM
same,TGI,SNB-75 CNS,2.44 µM and 2.6 µM
same,GI50,OVCAR-8 ovarian,1.28 µM and 1.84 µM
same,TGI,OVCAR-8 ovarian,4.31 µM and 8.03 µM
same,GI50,HL-60(TB) leukemia,0.181 µM and 0.522 µM
same,TGI,HL-60(TB) leukemia,0.887 µM and 2.15 µM
same,GI50,CCRF-CEM leukemia,0.652 µM and 1.08 µM
same,TGI,CCRF-CEM leukemia,11.5 µM and 6.62 µM
same,GI50,A549 NSCLC,1.06 µM and 1.14 µM
same,TGI,A549 NSCLC,3 µM and 3.38 µM
same,GI50,HCC-2998 colon,1.18 µM and 1.28 µM
same,TGI,HCC-2998 colon,3.19 µM and 3.1 µM
same,GI50,RPMI-8226 leukemia,1.37 µM and 1.91 µM
same,TGI,RPMI-8226 leukemia,4.64 µM and 5.84 µM
same,GI50,SNB-19 CNS,1.34 µM and 1.85 µM
same,TGI,SNB-19 CNS,5.6 µM and 8.47 µM
same,GI50,HT29 colon,0.481 µM and 0.542 µM
same,TGI,HT29 colon,2.45 µM and 2.64 µM
same,GI50,NCI-H460 lung,0.847 µM and 1.08 µM
same,TGI,NCI-H460 lung,2.75 µM and 3.06 µM

# Source: PubChem BioAssay (NCI)
